Measurements reported in US20160113921A1, “COMBINATION THERAPY COMPRISING OXAZOLIDINONE-QUINOLONES FOR USE IN TREATING BACTERIAL INFECTIONS” (MORPHOCHEM AKTIENGESELLSCHAFT FÜR KOMBINATORISCHE CHEMIE, priority 2013, published 2016).
In brackets after ≈: the same amount, converted by molar mass. Several values for one entry are separate records, joined by “and”; a condition that tells them apart may be missing. Equal values may be shown once. Values belong to the compound of their own block, whether it stands above or below them.

What was measured:
Type in all cases: cell-based
[1] = tested on: S. aureus DSM 11823, clone 16 (MSSA, quinolone-resistant); test: microbe, parasite or virus in culture; conditions: Staphylococcus aureus
Description: (§1) MIC-testing was done immediately after preparation of the dilutions. All tests were done in duplicate and repeated once on a separate occasion.
(§2) 1 mL of the bacterial suspension was transferred into a tube containing 10 mL CAMHB and was vortexed thoroughly. (S. pneumoniae 1 mL in 10 mL CAMHB+5% lysed horse blood). Columns 1-15 of the 96-well plate were inoculated with 5 μL of this suspension (1-15=antibacterial solution, 16=sterile medium without test item).
(§3) Turbidity was read visually with a mirror.

E. coli GNS-2601 = test: Time-kill curves; conditions: E. coli GNS2601; for growth- and kill rates k ('+' = growth, unmarked = kill rate): first four hours
E. coli ATCC 25922 [2] = test: Time-kill curves; conditions: E. coli ATCC25922; for growth- and kill rates k ('+' = growth, unmarked = kill rate): first four hours
[3] = tested on: P. aeruginosa NRZ-00425 (VIM-2 β-lactamase); test: microbe, parasite or virus in culture; conditions: Pseudomonas aeruginosa, checkerboard, read-out: MIC (agent alone)
Excerpt: The checkerboard consists of columns in which each well contains the same amount of antibacterial A being over i dilutions along the x-axis, and in rows in which each well contains the same amount of antibacterial B over j dilutions on the y-axis, i.e. serial dilutions of antibacterials A and B, respectively, are titrated in a rectangular fashion.
The fractional inhibitory concentration (FIC) is a mathematical expression of the effect of the combination of two antibacterial agents A and B. The FICs were calculated as the MIC of antibacterial A and antibacterial B in combination divided by the MIC of antibacterial A or antibacterial B alone.
The FICs and FIC index, respectively, are calculated according to the following equations:
FIC(A)=MIC(A in the presence of B)/MIC(A alone)
FIC(B)=MIC(B in the presence of A)/MIC(B alone)
The checkerboard titrations were performed three times.

S. aureus ATCC 29213 = test: MIC, broth microdilution (CLSI), CAMHB; conditions: Staphylococcus aureus; monosubstance; Sa ATCC29213; read-out: MIC
Description: as §1, §2, §3

E. faecalis V583 (VanB) = test: MIC, broth microdilution (CLSI), CAMHB; conditions: Enterococcus faecalis; monosubstance; Ef V583; read-out: MIC
Description: as §1, §2, §3

[4] = tested on: S. pneumoniae BAY 19397 (penicillin-, macrolide-, quinolone-resistant); test: MIC, broth microdilution (CLSI), CAMHB; conditions: monosubstance; Spn 19397; listed as MCB
Description: as §1, §2, §3

E. faecalis ATCC 29212 = test: MIC, broth microdilution (CLSI), CAMHB; conditions: Enterococcus faecalis; monosubstance; Ef ATCC29212; read-out: MIC
Description: as §1, §2, §3

E. coli ATCC 25922 [5] = test: MIC, broth microdilution (CLSI), CAMHB; conditions: Escherichia coli; monosubstance; Ec ATCC25922; read-out: MIC
Description: as §1, §2, §3

S. pneumoniae ATCC 33400 = test: MIC, broth microdilution (CLSI), CAMHB; conditions: Streptococcus pneumoniae; monosubstance; Spn ATCC33400; read-out: MIC
Description: as §1, §2, §3

[6] = tested on: S. aureus ATCC 33593 (MRSA); test: MIC, broth microdilution (CLSI), CAMHB; conditions: Staphylococcus aureus; monosubstance; Sa ATCC33593; read-out: MIC
Description: as §1, §2, §3

E. coli NRZ-00401 = test: Time-kill curves; conditions: E. coli NRZ00401; for growth- and kill rates k ('+' = growth, unmarked = kill rate): first four hours
E. coli NRZ-00302 = test: Time-kill curves; conditions: E. coli NRZ00302; for growth- and kill rates k ('+' = growth, unmarked = kill rate): first four hours
[7] = tested on: E. coli GNS-2601 (ESBL CTX-M-15); test: MIC, broth microdilution (CLSI), CAMHB; conditions: Escherichia coli; monosubstance; Ec GNS2601; read-out: MIC
Description: as §1, §2, §3

[8] = tested on: E. coli NRZ-00401 (metallo β-lactamase VIM-1); test: MIC, broth microdilution (CLSI), CAMHB; conditions: Escherichia coli; monosubstance; Ec NRZ00401; read-out: MIC
Description: as §1, §2, §3

[9] = tested on: E. coli NRZ-00302 (metallo β-lactamase NDM-1); test: MIC, broth microdilution (CLSI), CAMHB; conditions: Escherichia coli; monosubstance; Ec NRZ00302; read-out: MIC
Description: as §1, §2, §3

[10] = tested on: E. coli ATCC 25922, NRZ-00401, NRZ-00302 and GNS-2601; test: Time-kill curves, statements on the four E. coli strains

SMILES: CC(=O)NC[C@H]1CN(c2ccc(OCC3(O)CCN(c4cc5c(cc4F)c(=O)c(C(=O)O)cn5C4CC4)CC3)c(F)c2)C(=O)O1 [Compound 1, 7-(4-{4-[(5S)-5-(acetylamino-methyl)-2-oxo-oxazolidin-3-yl]-2-fluoro-phenoxymethyl}-4-hydroxy-piperidin-1-yl)-1-cyclopropyl-6-fluoro-4-oxo-1,4-dihydro-quinoline-3-carboxylic acid]
MIC [1]: 0.03 µg/mL (≈ 0.0479 µM)
Viable counts at 8 h of exposure (E. coli GNS-2601; single agent at 1x its MIC, listed as MCB): 8.34 log10 CFU/mL and 7.34 log10 CFU/mL
Viable counts at 8 h of exposure (E. coli GNS-2601; single agent at 2x its MIC): 6.29 log10 CFU/mL
Viable counts at 8 h of exposure (E. coli ATCC 25922 [2]; single agent at 1x its MIC): 4.69 log10 CFU/mL
Viable counts at 8 h of exposure (E. coli ATCC 25922 [2]; single agent at 2x its MIC, listed as MCB): 2.61 log10 CFU/mL and 2.62 log10 CFU/mL
MIC [3]: 128 to 256 µg/mL
MIC (S. aureus ATCC 29213): 0.25 µg/mL (≈ 0.399 µM)
MIC (E. faecalis V583 (VanB)): 0.03 µg/mL (≈ 0.0479 µM)
MIC [4]: 0.0004 µg/mL (≈ 0.000638 µM)
MIC (E. faecalis ATCC 29212): 0.03 µg/mL (≈ 0.0479 µM)
MIC (E. coli ATCC 25922 [5]): 16 µg/mL (≈ 25.5 µM)
MIC (S. pneumoniae ATCC 33400): 0.0075 µg/mL (≈ 0.012 µM)
MIC [6]: 0.03 µg/mL (≈ 0.0479 µM)
Viable counts at 8 h of exposure (E. coli NRZ-00401; single agent at 1x its MIC): 6.32 log10 CFU/mL
Viable counts at 8 h of exposure (E. coli NRZ-00302; single agent at 1x its MIC): 8.28 log10 CFU/mL
Viable counts at 8 h of exposure (E. coli NRZ-00302; single agent at 2x its MIC): 5.69 log10 CFU/mL

MIC (E. coli ATCC 25922 [5]): 2 µg/mL (≈ 14.5 µM)
MIC [7]: 64 µg/mL (≈ 464 µM)
MIC [8]: 2 µg/mL (≈ 14.5 µM)
MIC [9]: 64 µg/mL (≈ 464 µM)
SMILES: C[C@@H]1O[C@@H]1P(=O)(O)O [fosfomycin]
growth- and kill rates k ('+' = growth, unmarked = kill rate) (E. coli GNS-2601; single agent at 1x its MIC): 1.21 h⁻¹
growth- and kill rates k ('+' = growth, unmarked = kill rate) (E. coli GNS-2601; single agent at 2x its MIC): 1.85 h⁻¹
Viable counts at 8 h of exposure (E. coli GNS-2601; single agent at 1x its MIC): 5.08 log10 CFU/mL
Viable counts at 8 h of exposure (E. coli GNS-2601; single agent at 2x its MIC): 3.45 log10 CFU/mL
growth- and kill rates k ('+' = growth, unmarked = kill rate) (E. coli ATCC 25922 [2]; single agent at 1x its MIC): +0.68 h^−1
growth- and kill rates k ('+' = growth, unmarked = kill rate) (E. coli ATCC 25922 [2]; single agent at 2x its MIC): +0.72 h^−1
Viable counts at 8 h of exposure (E. coli ATCC 25922 [2]; single agent at 1x its MIC): 8.95 log10 CFU/mL
Viable counts at 8 h of exposure (E. coli ATCC 25922 [2]; single agent at 2x its MIC): 8.59 log10 CFU/mL
type of activity in time-kill ([10]; strains ATCC 25922, NRZ-00401): bacteriostatically
type of activity in time-kill ([10]; strains NRZ-00302 and GNS-2601): bactericidal
growth- and kill rates k ('+' = growth, unmarked = kill rate) (E. coli NRZ-00401; single agent at 1x its MIC): +0.40 h^−1
growth- and kill rates k ('+' = growth, unmarked = kill rate) (E. coli NRZ-00401; single agent at 2x its MIC): +0.32 h^−1
Viable counts at 8 h of exposure (E. coli NRZ-00401; single agent at 1x its MIC): 7.95 log10 CFU/mL
Viable counts at 8 h of exposure (E. coli NRZ-00401; single agent at 2x its MIC): 6.65 log10 CFU/mL
growth- and kill rates k ('+' = growth, unmarked = kill rate) (E. coli NRZ-00302; single agent at 1x its MIC): 1.67 h⁻¹
growth- and kill rates k ('+' = growth, unmarked = kill rate) (E. coli NRZ-00302; single agent at 2x its MIC): 2.09 h⁻¹
Viable counts at 8 h of exposure (E. coli NRZ-00302; single agent at 1x its MIC): 2.78 log10 CFU/mL
Viable counts at 8 h of exposure (E. coli NRZ-00302; single agent at 2x its MIC): 1.30 log10 CFU/mL
